Source: patent US20220125765A1, “PHARMACEUTICAL COMBINATIONS COMPRISING MEBENDAZOLE AND A STRONG OR MODERATE CYP1A2 INHIBITOR” (ZEPHAPHARM LTD, priority 2019, published 2022)
pIC50: −log10 of the molar value. Read-outs that look alike come from different tables or passages of the source.

Key:
Type in all cases: cell-based
[1] = system: 8 neuroblastoma and 13 sarcoma derived cell lines; experiment: 2D monolayer CellTiter-Blue viability, panel geometric mean (Example 9); settings: 21 cell lines, 72 hours
Procedure: (§1) Seventeen compounds, including mebendazole (Batch no. […] Efficacy of compounds was assessed using CellTiter-Blue® Cell Viability Assay. Anti-tumor activity is expressed as absolute and relative IC50 and IC70 values, calculated by non-linear regression analysis.

[2] = system: NBXF IMR-32; experiment: 2D monolayer CellTiter-Blue viability, neuroblastoma IMR-32; settings: 72 h
Procedure: as §1

[3] = system: SXFO Saos-2; experiment: 2D monolayer CellTiter-Blue viability, osteosarcoma Saos-2; settings: 72 h
Procedure: as §1

[4] = system: SXFO U-2-OS; experiment: 2D monolayer CellTiter-Blue viability, osteosarcoma U-2-OS; settings: 72 h
Procedure: as §1

[5] = system: SXFS A-204; experiment: 2D monolayer CellTiter-Blue viability, soft tissue sarcoma A-204; settings: 72 h
Procedure: as §1

[6] = system: SXFS SK-LMS-1; experiment: 2D monolayer CellTiter-Blue viability, soft tissue sarcoma SK-LMS-1; settings: 72 h
Procedure: as §1

[7] = system: OVXF 1023L; experiment: 2D monolayer CellTiter-Blue viability, ovarian cancer OVXF 1023L; settings: for pIC50: Homo sapiens, OVXF1023, OVXF 1023, 72 h; for Test/Control (%) at Drug Concentration: 72 h
Procedure: Mebendazole was tested in vitro across a panel of 12 tumor cell lines of ovarian and renal cancer by using a 2D monolayer assay. […] OVXF 899L and RXF 486L are P-gp expressing, multidrug resistant cell lines.
Anti-tumor activity is expressed as absolute and relative IC50/70 values, calculated by 4-parameter non-linear curve fit.

With `COC(=O)Nc1nc2ccc(C(=O)c3ccccc3)cc2[nH]1` [Mebendazole, methyl N-(6-benzoyl-1H-benzimidazol-2-yl)carbamate] the pIC50 ([1]; read-out: absolute geometric mean IC50) was 6.54, the pIC50 ([1]; read-out: relative geometric mean IC50) was 6.55 and the “Test/Control (%) at Drug Concentration” value ([2]; IMR-32, 1.0E+00 μM) was 1%. The “Test/Control (%) at Drug Concentration” value ([2]; IMR-32, 1.0E+01 μM) was 0%, the “Test/Control (%) at Drug Concentration” value ([2]; IMR-32, 1.0E+02 μM) was −2% and the “Test/Control (%) at Drug Concentration” value ([2]; IMR-32, 1.0E−01 μM) was 81%. For the same molecule, the “Test/Control (%) at Drug Concentration” value ([2]; IMR-32, 1.0E−02 μM) was 95%, the “Test/Control (%) at Drug Concentration” value ([2]; IMR-32, 3.2E+00 μM) was 1% and the “Test/Control (%) at Drug Concentration” value ([2]; IMR-32, 3.2E+01 μM) was −1%. The “Test/Control (%) at Drug Concentration” value ([2]; IMR-32, 3.2E−01 μM) was 10%, the “Test/Control (%) at Drug Concentration” value ([2]; IMR-32, 3.2E−02 μM) was 94% and the “Test/Control (%) at Drug Concentration” value ([2]; IMR-32, 3.2E−03 μM) was 97%. The “Test/Control (%) at Drug Concentration” value ([3]; Saos-2, 1.0E+00 μM) was 19%, the “Test/Control (%) at Drug Concentration” value ([3]; Saos-2, 1.0E+01 μM) was 11% and the “Test/Control (%) at Drug Concentration” value ([3]; Saos-2, 1.0E+02 μM) was 6%. For the same molecule, the “Test/Control (%) at Drug Concentration” value ([3]; Saos-2, 1.0E−01 μM) was 73%, the “Test/Control (%) at Drug Concentration” value ([3]; Saos-2, 1.0E−02 μM) was 74% and the “Test/Control (%) at Drug Concentration” value ([3]; Saos-2, 3.2E+00 μM) was 20%. For the same molecule, the “Test/Control (%) at Drug Concentration” value ([3]; Saos-2, 3.2E+01 μM) was 12%, the “Test/Control (%) at Drug Concentration” value ([3]; Saos-2, 3.2E−01 μM) was 29% and the “Test/Control (%) at Drug Concentration” value ([3]; Saos-2, 3.2E−02 μM) was 73%. For the same molecule, the “Test/Control (%) at Drug Concentration” value ([3]; Saos-2, 3.2E−03 μM) was 77%, the “Test/Control (%) at Drug Concentration” value ([4]; 1.0E+00 μM) was 38% and the “Test/Control (%) at Drug Concentration” value ([4]; 1.0E+01 μM) was 13%. For the same molecule, the “Test/Control (%) at Drug Concentration” value ([4]; 1.0E+02 μM) was 6%, the “Test/Control (%) at Drug Concentration” value ([4]; 1.0E−01 μM) was 82% and the “Test/Control (%) at Drug Concentration” value ([4]; 1.0E−02 μM) was 89%. For the same molecule, the “Test/Control (%) at Drug Concentration” value ([4]; 3.2E+00 μM) was 19%, the “Test/Control (%) at Drug Concentration” value ([4]; 3.2E+01 μM) was 11% and the “Test/Control (%) at Drug Concentration” value ([4]; 3.2E−01 μM) was 54%. For the same molecule, the “Test/Control (%) at Drug Concentration” value ([4]; 3.2E−02 μM) was 86%, the “Test/Control (%) at Drug Concentration” value ([4]; 3.2E−03 μM) was 85% and the “Test/Control (%) at Drug Concentration” value ([5]; A-204, 1.0E+00 μM) was 45%. For the same molecule, the “Test/Control (%) at Drug Concentration” value ([5]; A-204, 1.0E+01 μM) was 28%, the “Test/Control (%) at Drug Concentration” value ([5]; A-204, 1.0E+02 μM) was 10% and the “Test/Control (%) at Drug Concentration” value ([5]; A-204, 1.0E−01 μM) was 79%. The “Test/Control (%) at Drug Concentration” value ([5]; A-204, 1.0E−02 μM) was 96%, the “Test/Control (%) at Drug Concentration” value ([5]; A-204, 3.2E+00 μM) was 35% and the “Test/Control (%) at Drug Concentration” value ([5]; A-204, 3.2E+01 μM) was 20%. The “Test/Control (%) at Drug Concentration” value ([5]; A-204, 3.2E−01 μM) was 60%, the “Test/Control (%) at Drug Concentration” value ([5]; A-204, 3.2E−02 μM) was 83% and the “Test/Control (%) at Drug Concentration” value ([5]; A-204, 3.2E−03 μM) was 114%. For the same molecule, the “Test/Control (%) at Drug Concentration” value ([6]; SK-LMS-1, 1.0E+00 μM) was 27%, the “Test/Control (%) at Drug Concentration” value ([6]; SK-LMS-1, 1.0E+01 μM) was 9% and the “Test/Control (%) at Drug Concentration” value ([6]; SK-LMS-1, 1.0E+02 μM) was 3%. For the same molecule, the “Test/Control (%) at Drug Concentration” value ([6]; SK-LMS-1, 1.0E−01 μM) was 80%, the “Test/Control (%) at Drug Concentration” value ([6]; SK-LMS-1, 1.0E−02 μM) was 90% and the “Test/Control (%) at Drug Concentration” value ([6]; SK-LMS-1, 3.2E+00 μM) was 16%. The “Test/Control (%) at Drug Concentration” value ([6]; SK-LMS-1, 3.2E+01 μM) was 5%, the “Test/Control (%) at Drug Concentration” value ([6]; SK-LMS-1, 3.2E−01 μM) was 45% and the “Test/Control (%) at Drug Concentration” value ([6]; SK-LMS-1, 3.2E−02 μM) was 83%. The “Test/Control (%) at Drug Concentration” value ([6]; SK-LMS-1, 3.2E−03 μM) was 101%, the pIC50 ([7]; read-out: Abs. IC50) was < 5.49 and the pIC50 ([7]; read-out: Rel. IC50) was < 5.49. The “Test/Control (%) at Drug Concentration” value ([7]; OVXF 1023, 1.0E+00 μM) was 69%, the “Test/Control (%) at Drug Concentration” value ([7]; OVXF 1023, 1.0E−01 μM) was 94% and the “Test/Control (%) at Drug Concentration” value ([7]; OVXF 1023, 1.0E−02 μM) was 101%. For the same molecule, the “Test/Control (%) at Drug Concentration” value ([7]; OVXF 1023, 1.0E−03 μM) was 104%.
